Like-named read-outs stand apart in the source and are kept apart here.

Data set [1] is described as follows: Stability of the powder in sealed aluminium foil bag, purity and titre by HPLC. It counts as physicochemical. The conditions noted are these: protected from light; for Titre, starting values: HPLC titre of acid moiety; for Titre, starting values / Purity, starting values: start; for Purity, starting values: airtight container. The protocol: The stability of the compounds listed in the following table, under powder form and in sealed aluminium foil bag, was tested, keeping the samples in airtight container, protected from light and measuring the purity and the titre thereof after 6 and 12 months.
In particular, the stability of the acid moiety was observed by HPLC, detecting the purity and titre thereof.

The conditions of data set [2]: mice, one capsule.
Method: The biological tests were carried out on 12 mice weighing 200-300 g, administering to each of them one 3 mg capsule containing the dose of the selected compound, as below reported, dispersed in lactose.
The haematic values of the selected compound were subsequently evaluated after regular time intervals (0, 30, 60, 95, 120 min.).
The conditions of data set [3]: cited from earlier work.
For data set [4] the following is noted: background statement, cited from earlier work.
Setting [5] is: after nine months, U.S. Pat. No. 5,817,659 (Example 1).
[6] abbreviates: after twelve months, U.S. Pat. No. 6,271,374 (Example 1).

`CN1c2c(nc(N)[nH]c2=O)NCC1CNc1ccc(C(=O)NC(CCC(=O)O)C(=O)O)cc1.NC1C(O)OC(CO)C(O)C1O.NC1C(O)OC(CO)C(O)C1O` (mixture of isomers) [D-GAL (6R,S)-5-MTHF, D-galactosamine 5-methyl-(6R,S)-tetrahydrofolate]: in data set [1], the Titre, starting values is 55.5%; the “Purity, starting values” was determined as 99.1; the “Purity after 6 months” value is 98.9; the Titre after 6 months is 55.2%. In data set [1], the “Purity after 12 months” value is 98.7 and the Titre after 12 months worked out at 55.3%.
For `CN1c2c(nc(N)[nH]c2=O)NCC1CNc1ccc(C(=O)NC(CCC(=O)O)C(=O)O)cc1.NC1C(O)OC(CO)C(O)C1O.NC1C(O)OC(CO)C(O)C1O` (mixture of isomers) [D-GLU 5-MTHF, D-glucosamine 5-methyl-(6R,S)-tetrahydrofolate], in data set [1], the Titre, starting values amounted to 55.2%; the “Purity, starting values” worked out at 99.1; the “Purity after 6 months” value came to 98.9; the Titre after 6 months was 55%. Besides, in data set [1], the “Purity after 12 months” value was found to be 99.0 and the Titre after 12 months was found to be 54.8%. The haematic value in data set [2] (time 0.5 h) worked out at 83.2 ± 4.9 nmol/L. Further, the haematic value in data set [2] (time 1.5 h) was determined as 83.8 ± 4.3 nmol/L. For the same molecule, the haematic value in data set [2] (time 2 h) was 82.8 ± 4.3 nmol/L.
With `CN1c2c([nH]c(N)nc2=O)NC[C@@H]1CNc1ccc(C(=O)N[C@@H](CCC(=O)[O-])C(=O)[O-])cc1.[Ca+2]` [5-methyl-(6S)-tetrahydrofolic acid calcium salts], in data set [3] (after twelve months, U.S. Pat. No. 6,441,168 (Example 1)), the titre decrease entry was “about 1%”.
As for `Nc1nc(=O)c2c([nH]1)NC[C@@H](CNc1ccc(C(=O)N[C@@H](CCC(=O)[O-])C(=O)[O-])cc1)N2.[Ca+2]` [(6R)-tetrahydrofolic acid calcium salts], the titre decrease result in data set [3] (setting [5]) is “about 2%”; in data set [3] (setting [6]), “about 7%”.
As to `Nc1nc(=O)c2c([nH]1)NCC(CNc1ccc(C(=O)N[C@@H](CCC(=O)[O-])C(=O)[O-])cc1)N2.[Ca+2]` (stereo partly drawn) [(6R,S)-tetrahydrofolic acid calcium salts], the titre decrease entry in data set [3] (setting [5]) is “about 2%”.
For the molecule `Nc1nc(=O)c2c([nH]1)NC[C@H](CNc1ccc(C(=O)N[C@@H](CCC(=O)[O-])C(=O)[O-])cc1)N2.[Ca+2]` [(6S)-tetrahydrofolic acid calcium salts], the titre decrease entry in data set [3] (setting [5]) is “about 2%”; in data set [3] (setting [6]), “about 7%”.
Turning to `N[C@H]1C(O)O[C@H](CO)[C@H](O)[C@@H]1O.N[C@H]1C(O)O[C@H](CO)[C@H](O)[C@@H]1O.Nc1nc2ncc(CNc3ccc(C(=O)N[C@@H](CCC(=O)O)C(=O)O)cc3)nc2c(=O)[nH]1` [D-GAL folate, D-galactosamine L-folate], in data set [1], the Titre, starting values turned out to be 54.8%; the “Purity, starting values” worked out at 99.2; the “Purity after 6 months” value turned out to be 99.1; the Titre after 6 months is 54.5%. Besides, in data set [1], the “Purity after 12 months” value is reported as 98.7 and the Titre after 12 months was 54.2%.
Regarding `CN1c2c(nc(N)[nH]c2=O)NCC1CNc1ccc(C(=O)NC(CCC(=O)O)C(=O)O)cc1.NC1C(O)OC(CO)C(O)C1O.NC1C(O)OC(CO)C(O)C1O` [D-GLU (6S)-5-MTHF, D-glucosamine 5-methyl-(6S)-tetrahydrofolate], in data set [1], the Titre, starting values is 55.7%; the “Purity, starting values” was determined as 99.3; the “Purity after 6 months” value was 99.0; the Titre after 6 months came out at 55.4%. Moreover, in data set [1], the “Purity after 12 months” value turned out to be 98.5 and the Titre after 12 months worked out at 55.1%. The haematic value in data set [2] (time 0.5 h) stood at 83.7 ± 5.2 nmol/L. This molecule also had a haematic value in data set [2] (time 1 h) of 86.1 ± 5.0 nmol/L. In data set [2] (time 1.5 h), this molecule gave a haematic value of 83.7 ± 4.3 nmol/L. Further, in data set [2] (time 2 h), the haematic value came to 83 ± 4.3 nmol/L.
Consider `N[C@H]1C(O)O[C@H](CO)[C@@H](O)[C@@H]1O.N[C@H]1C(O)O[C@H](CO)[C@@H](O)[C@@H]1O.Nc1nc2ncc(CNc3ccc(C(=O)N[C@@H](CCC(=O)O)C(=O)O)cc3)nc2c(=O)[nH]1` [D-GLU folate, D-glucosamine L-folate], for which, in data set [1], the Titre, starting values stood at 54.6%; the “Purity, starting values” was found to be 99.1; the “Purity after 6 months” value came out at 98.8; the Titre after 6 months turned out to be 54.3%. Further, in data set [1], the “Purity after 12 months” value worked out at 98.7 and the Titre after 12 months turned out to be 54%. Besides, in data set [2] (time 0.5 h), the haematic value came to 75.3 ± 4.3 nmol/L. The haematic value in data set [2] (time 1 h) is 79.8 ± 5.2 nmol/L. The same molecule gave a haematic value in data set [2] (time 1.5 h) of 78.4 ± 4.3 nmol/L. This molecule displayed a haematic value in data set [2] (time 2 h) of 76.8 ± 4.3 nmol/L.
For the molecule `Nc1nc2ncc(CNc3ccc(C(=O)N[C@@H](CCC(=O)O)C(=O)O)cc3)nc2c(=O)[nH]1` [Folic acid, N-[4-[[(2-amino-1,4-dihydro-4-oxo-6-pteridinyl)methyl]amino]benzoyl]-L-glutamic acid], the “solubility in alcohol” value in data set [4] (alcohol) was “insoluble”. Besides, in data set [4], the “solubility in dilute solutions of alkali hydroxides and carbonates” value is “readily soluble”. Also, the “solubility in water” value in data set [4] (water) is “very slightly soluble”.

The record behind these values is patent publication US7947662B2, “Folates, compositions and uses thereof” (priority 2008, dated 2011).
